We go through four molecules from PMC8297402, “Trifluoromethyl-substituted 3,5-bis(arylidene)-4-piperidones as potential anti-hepatoma and anti-inflammation agents by inhibiting NF-кB activation” (Journal of Enzyme Inhibition and Medicinal Chemistry, 2021).

Series [1] has as its system TNF-α. Put plainly: ELISA of TNF-α release in LPS-stimulated RAW264.7 cells. In kind it is cell-based, mouse. Particulars: Mus musculus, RAW264.7, BAPs (5 μM) + LPS (1 μg/mL), RAW264.7, ELISA; read-out: Inhibition rate TNF-α. The essentials:
(§1)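 RAW264.7 cells pretreated 2 h with compound at 5.0 μM (PDTC 30 μM as reference), then stimulated with LPS 1.0 μg/mL for a further 22 h. Secreted TNF-α and IL-6 in the culture media quantified by ELISA.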
(ELISA stands for enzyme-linked immunosorbent assay.)

Series [2] in a line: Modified MTT cytotoxicity assay, normal heptical cell line LO2. In kind it is cell-based, human. As to conditions: human, LO2 cells (normal hepatic cell line), 24 h incubation. The method, boiled down:
(§2)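 HepG2 grown in DMEM, SMMC-7721 and LO2 in RPMI 1640, each with 10% FBS; ~8 × 10^3 cells/well. Compounds at 0.3125-10 μg/mL for 24 h at 37 °C, then MTT for 4 h. IC50 as mean of three replicates.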
(In general: Tetrazolium dyes change colour on reduction, which living cells bring about.)

The subject of series [3] is RAW264.7 cell. The series can be described thus: MTT toxicity pre-experiment on RAW264.7 macrophagocyte. Particulars: Mus musculus, RAW264.7, BAPs 5 μM, read-out: Survival rate RAW264.7 cell. In kind it is cell-based, mouse. The essentials: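 Cytotoxicity toward RAW264.7 macrophages determined by MTT assay with compounds at 5.0 μM, expressed as cell survival rate.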
Series [4] has as its system HepG2. The series can be described thus: Modified MTT cytotoxicity assay, HepG2. In kind it is cell-based, Human. As to conditions: for IC50: Homo sapiens, HepG2, 24 h, MTT, 24 h incubation, three replicates, read-out: Cytotoxicity IC50 HepG2; for SI (selectivity index) HepG2: quotient of IC50 for normal (LO2) and malignant (HepG2) cells. The method, boiled down:
as §2

Series [5] concerns A549. The series can be described thus: Modified MTT cytotoxicity assay, A549. Particulars: for IC50: Homo sapiens, A549, read-out: Cytotoxicity IC50 A549, MTT, non-small cell lung cancer cell line; for SI (selectivity index) A549: quotient of IC50 for normal (HHL-5) and malignant (A549) cells.
Protocol: (§3) To further verify the anti-tumour activity, one human non-small cell lung cancer cell line (A549), one human ovarian cancer cell line (A2780), and one human normal heptical cell line (HHL-5) were screened by BAPs (4–30) using a modified MTT assay (Supporting Information). DOX and curcumin were selected as positive controls.
(§4) The optical density (OD) value of each well was measured on a
(§5) multi-well plate reader (TECAN, Mӓnnedorf, Switzerland ) at 570 nm.
(§6) Every IC 50 value was the average of three replicates.
(§7) Doxorubicin (DOX) and Curcumin were used as positive controls.
Series [6] is described as follows: Modified MTT cytotoxicity assay, normal heptical cell line HHL-5. As to conditions: human, HHL-5 cells (normal hepatic cell line).
Series [7] relates to SMMC-7721. Put plainly: Modified MTT cytotoxicity assay, SMMC-7721. Particulars: for IC50: Homo sapiens, SMMC-7721, 24 h, MTT, 24 h incubation, three replicates; for SI (selectivity index) SMMC-7721: quotient of IC50 for normal (LO2) and malignant (SMMC-7721) cells. In kind it is cell-based, Human. The essentials: as §2
In series [8] the test system is A2780. Put plainly: Modified MTT cytotoxicity assay, A2780. As to conditions: for IC50: Homo sapiens, A2780, read-out: Cytotoxicity IC50 A2780, MTT, ovarian cancer cell line; for SI (selectivity index) A2780: quotient of IC50 for normal (HHL-5) and malignant (A2780) cells.
Protocol: as §3, §4, §5, §6, §7
Series [9] deals with IL-6. Put plainly: ELISA of IL-6 release in LPS-stimulated RAW264.7 cells. Particulars: Mus musculus, RAW264.7, BAPs (5 μM) + LPS (1 μg/mL), RAW264.7, ELISA; read-out: Inhibition rate IL-6. In kind it is cell-based, mouse. The method, boiled down: as §1
Series [10] is described as follows: in vitro. As to conditions: human.

Each structure is given as a SMILES string.

The inhibition is the drop in the measured response relative to a control, in per cent. One may read the IC50 as the concentration needed to halve the response being measured. One may read the melting point as the temperature, or range, at which the solid turns liquid.

As for `O=C1/C(=C/c2cccc(C(F)(F)F)c2)CN(S(=O)(=O)c2ccccc2)C/C1=C\c1cccc(C(F)(F)F)c1` [BAP 13], the melting point is 151 to 153 °C. The inhibition at 5 µM in series [1] stood at 56.3 ± 2.1%. The same molecule displayed a concentration for half-maximal inhibition (IC50) at 24 h in series [2] of 10100 ± 400 nM. Besides, the viability at 5 µM in [3] worked out at 82.5 ± 1.3%. Moreover, in series [4], the half-inhibitory concentration (IC50) turned out to be 3500 ± 100 nM and the “SI (selectivity index) HepG2” value stood at 3.1. For the same molecule, in series [5], the half-inhibitory concentration (IC50) worked out at 250 ± 10 nM and the “SI (selectivity index) A549” value turned out to be 11.6. This molecule also came in with a concentration for half-maximal inhibition (IC50) in [6] of 2900 ± 200 nM. Further, in [7], the half-inhibitory concentration (IC50) was determined as 5700 ± 100 nM and the “SI (selectivity index) SMMC-7721” value was determined as 1.8. Further, in series [8], the IC50 came out at 160 ± 10 nM and the “SI (selectivity index) A2780” value was found to be 18.1. The inhibition at 5 µM in series [9] is 48.9 ± 2.9%.

As to `O=C1/C(=C/c2cccc(C(F)(F)F)c2)CN(S(=O)(=O)c2ccc(Br)cc2)C/C1=C\c1cccc(C(F)(F)F)c1` [BAP 19], the melting point was 135 to 137 °C. In addition, the inhibition at 5 µM in [1] is 49.2 ± 3.7%. The same molecule registered a half-maximal inhibitory concentration (IC50) at 24 h in [2] of 11000 ± 200 nM. Moreover, in [3], the viability at 5 µM is 81.9 ± 0.6%. In series [4], the IC50 came to 6500 ± 200 nM and the “SI (selectivity index) HepG2” value is 1.7. Also, in series [5], the 50% inhibitory concentration (IC50) stood at 120 ± 10 nM and the “SI (selectivity index) A549” value is 113.3. It took 13600 ± 500 nM to reach half-maximal inhibition in series [6] (IC50). For the same molecule, in series [7], the IC50 was 7600 ± 400 nM and the “SI (selectivity index) SMMC-7721” value is 1.4. Also, in series [8], the half-inhibitory concentration (IC50) came to 210 ± 30 nM and the “SI (selectivity index) A2780” value is 64.8. In addition, in [9], the inhibition at 5 µM stood at 56.3 ± 1.3%.

For the molecule `COc1cccc2c1C(=O)c1c(O)c3c(c(O)c1C2=O)C[C@@](O)(C(=O)CO)C[C@@H]3O[C@H]1C[C@H](N)[C@H](O)[C@H](C)O1` [DOX, Doxorubicin, reference compound], half-maximal inhibition in series [2] (IC50 at 24 h) required 8900 ± 500 nM. For the same molecule, the 50% inhibitory concentration (IC50) in [4] is approximately 1300 nM; in series [5], 290 ± 70 nM; in [10], 12200 ± 400 nM; in series [7], approximately 1700 nM; in series [8], 190 ± 10 nM. For the same molecule, the “SI (selectivity index) HepG2” value in [4] was 6.8. Also, the “SI (selectivity), bound stated for A549 and A2780 together” value in series [5] (A549 and A2780 vs HHL-5) is given as more than 40. Besides, in series [5], the “SI (selectivity index) A549” value was found to be 42.1. The “SI (selectivity index) SMMC-7721” value in series [7] is listed as 5.2. Further, the “SI (selectivity index) A2780” value in [8] amounted to 64.2.

For `O=C1/C(=C/c2ccc(C(F)(F)F)cc2)CN(S(=O)(=O)c2ccc(Cl)cc2)C/C1=C\c1ccc(C(F)(F)F)cc1` [BAP 27], the melting point lay in the range of 220 to 222 °C. For the same molecule, in series [1], the inhibition at 5 µM was found to be 69.9 ± 2.7%. In series [2], this molecule returned a concentration for half-maximal inhibition (IC50) at 24 h of 15800 ± 400 nM. Also, the viability at 5 µM in series [3] was determined as 86.4 ± 4.8%. Also, in series [4], the IC50 turned out to be 1400 ± 200 nM and the “SI (selectivity index) HepG2” value is reported as 11.3. In series [5], the concentration for half-maximal inhibition (IC50) came to 140 ± 40 nM and the “SI (selectivity index) A549” value turned out to be 65.0. The IC50 in series [6] was determined as 9100 ± 200 nM. For the same molecule, in series [7], the IC50 amounted to 1800 ± 200 nM and the “SI (selectivity index) SMMC-7721” value was found to be 8.8. Besides, in [8], the 50% inhibitory concentration (IC50) is 197 ± 50 nM and the “SI (selectivity index) A2780” value amounted to 46.2. For the same molecule, in [9], the inhibition at 5 µM was found to be 67.3 ± 2.2%.
